In ChEMBL document CHEMBL4483862, “Open-source discovery of chemical leads for next-generation chemoprotective antimalarials” (2018):

Test system: Plasmodium berghei
Experiment: Luciferase/luciferin-expressing antifolate-resistant parasites were used to infect a culture of HepG2 cells that were pre-incubated with compounds. Infected hepatocytes emit light due to the luciferase reaction. Assay results are presented as the percent inhibition of light emission compared to control. […]
Type: functional
Conditions: sporozoite; for IC90: read-out: LUCIFERASE INFECTION ASSAY - IC90

SMILES | IC90 | also measured
CCOC(=O)CN1N=C(/C=C/c2ccc(C(C)C)cc2)CCC1=O | > 10 µM | IC50 (HEPG2TOX_HILL_SLOPE 1.7, HEPG2TOX_R_SQUARED 0.981, read-out: LUCIFERASE INFECTION ASSAY - IC50): > 10 µM
O=C(Nc1cc(Cl)cc(Cl)c1)Nc1cc(Cl)cc(Cl)c1 | 1.35 µM | IC50 (HEPG2TOX_HILL_SLOPE 1.67, HEPG2TOX_R_SQUARED 0.958, PBLUC_HILL_SLOPE 0.797, PBLUC_R_SQUARED 0.657, read-out: LUCIFERASE INFECTION ASSAY - IC50): 0.0855 µM
COc1ccc(-c2cnc3ccc(NCC4CC4)nn23)cc1OC | 2.25 µM | IC50 (HEPG2TOX_HILL_SLOPE 1.71, HEPG2TOX_R_SQUARED 0.949, PBLUC_HILL_SLOPE 2.62, PBLUC_R_SQUARED 0.845, read-out: LUCIFERASE INFECTION ASSAY - IC50): 0.972 µM
CCCn1nc(C(=O)NCCc2ccc(-n3cccn3)cc2)c2ccccc2c1=O | 4.06 µM | IC50 (HEPG2TOX_HILL_SLOPE 1.69, HEPG2TOX_R_SQUARED 0.716, PBLUC_HILL_SLOPE 8.19, PBLUC_R_SQUARED 0.628, read-out: LUCIFERASE INFECTION ASSAY - IC50): 3.1 µM
Cc1ccc2nc(NC(=O)c3cccc(F)c3)c(C(=O)NC3CCCCC3)n2c1 | 0.924 µM | IC50 (HEPG2TOX_HILL_SLOPE 1.74, HEPG2TOX_R_SQUARED 0.865, PBLUC_HILL_SLOPE 15.6, PBLUC_R_SQUARED 0.75, read-out: LUCIFERASE INFECTION ASSAY - IC50): 0.803 µM
COc1cc(OC)cc(-c2cnc3cnc(-c4ccccc4C)cn23)c1 | 2.62 µM | IC50 (HEPG2TOX_HILL_SLOPE 1.68, HEPG2TOX_R_SQUARED 0.933, PBLUC_HILL_SLOPE 2.21, PBLUC_R_SQUARED 0.835, read-out: LUCIFERASE INFECTION ASSAY - IC50): 0.97 µM
O=C(C1CC1)N1CCc2nc(NCc3cccc(Oc4ccccc4)c3)ncc2C1 | 7.02 µM | IC50 (HEPG2TOX_HILL_SLOPE 1.68, HEPG2TOX_R_SQUARED 0.88, PBLUC_HILL_SLOPE 2.35, PBLUC_R_SQUARED 0.234, read-out: LUCIFERASE INFECTION ASSAY - IC50): 2.75 µM
CCN1C(=O)N(CCCc2cccnc2)C(=O)C12CCN(Cc1ccc3c(c1)Cc1ccccc1-3)CC2 | 2.58 µM | IC50 (HEPG2TOX_HILL_SLOPE 1.68, HEPG2TOX_R_SQUARED 0.934, PBLUC_HILL_SLOPE 11.7, PBLUC_R_SQUARED 0.742, read-out: LUCIFERASE INFECTION ASSAY - IC50): 2.14 µM
N#Cc1ncn(-c2nc(-c3ccccn3)nc3sc(-c4ccccc4)cc23)n1 | 7.91 µM | IC50 (HEPG2TOX_HILL_SLOPE 1.72, HEPG2TOX_R_SQUARED 0.411, PBLUC_HILL_SLOPE 3.83, PBLUC_R_SQUARED 0.832, read-out: LUCIFERASE INFECTION ASSAY - IC50): 4.46 µM
Cc1ccc(-c2csc(NC(=O)/C=C/c3cnn(C)c3)n2)o1 | 4.35 µM | IC50 (HEPG2TOX_HILL_SLOPE 1.69, HEPG2TOX_R_SQUARED 0.984, PBLUC_HILL_SLOPE 1.61, PBLUC_R_SQUARED 0.8, read-out: LUCIFERASE INFECTION ASSAY - IC50): 1.11 µM
CC(C)c1ccc(Nc2nccc3nc(-c4cccc(C(C)C)c4)[nH]c23)cc1 | > 10 µM | IC50 (HEPG2TOX_HILL_SLOPE 1.74, HEPG2TOX_R_SQUARED 0.684, PBLUC_HILL_SLOPE 1.1, PBLUC_R_SQUARED 0.805, read-out: LUCIFERASE INFECTION ASSAY - IC50): 2.41 µM
CNc1nc2cnc(Nc3cccc(NC(C)=O)c3)cc2n1-c1ccccc1 | > 10 µM | IC50 (HEPG2TOX_HILL_SLOPE 1.67, HEPG2TOX_R_SQUARED 0.953, read-out: LUCIFERASE INFECTION ASSAY - IC50): > 10 µM
COc1nc2c(c(-c3ccc(SC)cc3)c1C#N)Cc1ccccc1-2 | > 9.58 µM | IC50 (HEPG2TOX_HILL_SLOPE 1.73, HEPG2TOX_R_SQUARED 0.894, PBLUC_HILL_SLOPE 2.49, PBLUC_R_SQUARED 0.21, read-out: LUCIFERASE INFECTION ASSAY - IC50): 5.33 µM
COc1ccc(C(=O)N(c2nc3ccccc3s2)c2c(C)cccc2C)cc1 | > 10 µM | IC50 (HEPG2TOX_HILL_SLOPE 1.69, HEPG2TOX_R_SQUARED 0.759, PBLUC_HILL_SLOPE 12.9, PBLUC_R_SQUARED 0.198, read-out: LUCIFERASE INFECTION ASSAY - IC50): 9.04 µM
N#Cc1ccc(C(=O)Nc2nc3ccc(SC(F)F)cc3s2)cc1 | 3.39 µM | IC50 (HEPG2TOX_HILL_SLOPE 1.69, HEPG2TOX_R_SQUARED 0.978, PBLUC_HILL_SLOPE 16.3, PBLUC_R_SQUARED 0.469, read-out: LUCIFERASE INFECTION ASSAY - IC50): 2.96 µM
Cc1c(C)c(C)c(S(=O)(=O)Nc2ccc3c[nH]nc3c2)c(C)c1C | > 10 µM | IC50 (HEPG2TOX_HILL_SLOPE 1.73, HEPG2TOX_R_SQUARED 0.711, PBLUC_HILL_SLOPE 1.55, PBLUC_R_SQUARED 0.469, read-out: LUCIFERASE INFECTION ASSAY - IC50): 4.27 µM

SMILES | IC90 | also measured
c1ccc2c(-c3cc(Nc4ccc5[nH]ccc5c4)ncn3)cccc2c1 | 4.49 µM | IC50 (HEPG2TOX_HILL_SLOPE 1.68, HEPG2TOX_R_SQUARED 0.859, PBLUC_HILL_SLOPE 1.6, PBLUC_R_SQUARED 0.806, read-out: LUCIFERASE INFECTION ASSAY - IC50): 1.13 µM
Cc1ccc(N/N=C(\C=N\N)C(=O)c2ccc(Cl)cc2)cc1 | > 10.5 µM | IC50 (HEPG2TOX_HILL_SLOPE 1.68, HEPG2TOX_R_SQUARED 0.854, PBLUC_HILL_SLOPE 3.07, PBLUC_R_SQUARED 0.149, read-out: LUCIFERASE INFECTION ASSAY - IC50): 5.16 µM
CN(C)c1ccc(Nc2cc(-c3cccc4ccccc34)ncn2)cc1 | 6.64 µM | IC50 (HEPG2TOX_HILL_SLOPE 1.74, HEPG2TOX_R_SQUARED 0.777, PBLUC_HILL_SLOPE 1.75, PBLUC_R_SQUARED 0.668, read-out: LUCIFERASE INFECTION ASSAY - IC50): 1.9 µM
COc1cccc(-c2ccc3nnc(-c4ccc5c(c4)OCO5)n3c2)c1 | 0.981 µM | IC50 (HEPG2TOX_HILL_SLOPE 1.68, HEPG2TOX_R_SQUARED 0.984, PBLUC_HILL_SLOPE 2.05, PBLUC_R_SQUARED 0.784, read-out: LUCIFERASE INFECTION ASSAY - IC50): 0.337 µM
O=C(OCc1cnn(-c2ccccc2)c1)c1cc([N+](=O)[O-])ccc1N1CCCC1 | > 10 µM | IC50 (HEPG2TOX_HILL_SLOPE 1.67, HEPG2TOX_R_SQUARED 0.935, PBLUC_HILL_SLOPE 0.776, PBLUC_R_SQUARED 0.413, read-out: LUCIFERASE INFECTION ASSAY - IC50): 9.4 µM
COc1ccc(-c2cn3c(-c4ccc5ncccc5c4)cnc3cn2)cn1 | 4.4 µM | IC50 (HEPG2TOX_HILL_SLOPE 1.73, HEPG2TOX_R_SQUARED 0.987, PBLUC_HILL_SLOPE 1.52, PBLUC_R_SQUARED 0.763, read-out: LUCIFERASE INFECTION ASSAY - IC50): 1.04 µM
CN(C)CCNC(=O)c1ccc(-c2cn3c(-c4ccc(Cl)cc4)cnc3cn2)cc1 | 3.79 µM | IC50 (HEPG2TOX_HILL_SLOPE 1.7, HEPG2TOX_R_SQUARED 0.889, PBLUC_HILL_SLOPE 9.39, PBLUC_R_SQUARED 0.389, read-out: LUCIFERASE INFECTION ASSAY - IC50): 3 µM
Cc1ccc(C)n1-c1nc2ccc(C(=O)NCC(O)c3ccccc3)cc2s1 (centres undefined) | 4.67 µM | IC50 (HEPG2TOX_HILL_SLOPE 1.7, HEPG2TOX_R_SQUARED 0.986, PBLUC_HILL_SLOPE 2.65, PBLUC_R_SQUARED 0.703, read-out: LUCIFERASE INFECTION ASSAY - IC50): 2.04 µM
Cc1sc2nc3c4ccccc4c(Cl)nn3c(=O)c2c1C | > 10 µM | IC50 (HEPG2TOX_HILL_SLOPE 1.74, HEPG2TOX_R_SQUARED 0.905, PBLUC_HILL_SLOPE 1.87, PBLUC_R_SQUARED 0.353, read-out: LUCIFERASE INFECTION ASSAY - IC50): 5.64 µM
COc1ccc(Nc2cc(C)nc(Nc3ccc(OC)cc3)n2)cc1 | 3.93 µM | IC50 (HEPG2TOX_HILL_SLOPE 1.69, HEPG2TOX_R_SQUARED 0.922, PBLUC_HILL_SLOPE 13, PBLUC_R_SQUARED 0.323, read-out: LUCIFERASE INFECTION ASSAY - IC50): 3.32 µM
CCN(c1ccc(NC(=O)CCc2ccccc2Cl)cc1)C(C)C | > 10 µM | IC50 (HEPG2TOX_HILL_SLOPE 1.73, HEPG2TOX_R_SQUARED 0.92, read-out: LUCIFERASE INFECTION ASSAY - IC50): > 10 µM
CCOc1cc2c(cc1OCC)CN(c1cnn(-c3nc4ccccc4[nH]3)c(=O)c1Cl)CC2 | 2.69 µM | IC50 (HEPG2TOX_HILL_SLOPE 1.71, HEPG2TOX_R_SQUARED 0.884, PBLUC_HILL_SLOPE 7.85, 14.7, PBLUC_R_SQUARED 0.450, 0.666, read-out: LUCIFERASE INFECTION ASSAY - IC50): 2.1 µM
CCc1ccccc1Nc1c(Cl)c(C)nc2ncnn12 | > 11.5 µM | IC50 (HEPG2TOX_HILL_SLOPE 1.69, HEPG2TOX_R_SQUARED 0.869, PBLUC_HILL_SLOPE 4.69, PBLUC_R_SQUARED 0.317, read-out: LUCIFERASE INFECTION ASSAY - IC50): 7.45 µM
Cc1ccc(NCc2c(Cl)nc3sccn23)c(C)c1 | > 11.3 µM | IC50 (HEPG2TOX_HILL_SLOPE 1.69, HEPG2TOX_R_SQUARED 0.916, PBLUC_HILL_SLOPE 2.14, PBLUC_R_SQUARED 0.29, read-out: LUCIFERASE INFECTION ASSAY - IC50): 10.3 µM
CC/C(=N\OC(=O)c1cccc(C(F)(F)F)c1)c1ccc(-c2ccccc2F)cc1 | > 7.94 µM | IC50 (HEPG2TOX_HILL_SLOPE 1.72, HEPG2TOX_R_SQUARED 0.909, PBLUC_HILL_SLOPE 3.88, PBLUC_R_SQUARED 0.158, read-out: LUCIFERASE INFECTION ASSAY - IC50): 6.84 µM
Cc1c(-c2ccccc2)sc(N)c1C#N | > 15.4 µM | IC50 (HEPG2TOX_HILL_SLOPE 1.71, HEPG2TOX_R_SQUARED 0.831, PBLUC_HILL_SLOPE 15.7, PBLUC_R_SQUARED 0.066, read-out: LUCIFERASE INFECTION ASSAY - IC50): 14.9 µM
